pKi: −log10 of the molar value.
Columns and labels:
[1] = molecular target: 5-hydroxytryptamine receptor 3A (Homo sapiens) (UniProt P46098); conditions: Compound concentration 10.0 uM
[2] = test system: Receptor-type tyrosine-protein kinase FLT3 (Homo sapiens), P36888 [UNDEFINED MUTATION]; conditions: Compound concentration 1000.0 nM
[3] = molecular target: Testis-specific serine/threonine-protein kinase 1 (Homo sapiens) (UniProt Q9BXA7); conditions: Compound concentration 1000.0 nM
[4] = molecular target: Receptor-type tyrosine-protein kinase FLT3 (Homo sapiens) (UniProt P36888); conditions: Compound concentration 1000.0 nM
[5] = test system: Hepatocyte growth factor receptor (Homo sapiens), P08581 [Y1235D]; conditions: Compound concentration 1000.0 nM
[6] = test system: Mast/stem cell growth factor receptor Kit (Homo sapiens), P10721 [V559D,V654A]; conditions: Compound concentration 1000.0 nM
[7] = test system: Epidermal growth factor receptor (Homo sapiens), P00533 [L858R]; conditions: Compound concentration 1000.0 nM
[8] = molecular target: Mitogen-activated protein kinase kinase kinase kinase 4 (Homo sapiens) (UniProt O95819); conditions: Compound concentration 1000.0 nM
[9] = molecular target: NUAK family SNF1-like kinase 2 (Homo sapiens) (UniProt Q9H093); conditions: Compound concentration 1000.0 nM
[10] = molecular target: Sigma non-opioid intracellular receptor 1 (Homo sapiens, UniProt Q99720); test: GPCRScan assay: inhibition of Sigma 1; parameters: radioligand conc. used [nm] 4.0 – 5.0, parental cells HEKT
[11] = molecular target: Histamine H4 receptor (Homo sapiens) (UniProt Q9H3N8); conditions: Compound concentration 10.0 uM
[12] = test system: Phosphatidylinositol 4,5-bisphosphate 3-kinase catalytic subunit alpha isoform (Homo sapiens), P42336 [E545K]; conditions: Compound concentration 1000.0 nM
[13] = molecular target: Ribosomal protein S6 kinase alpha-3 (Homo sapiens) (UniProt P51812); conditions: Compound concentration 1000.0 nM
[14] = molecular target: Serine/threonine-protein kinase TAO3 (Homo sapiens) (UniProt Q9H2K8); conditions: Compound concentration 1000.0 nM
[15] = molecular target: Tyrosine-protein kinase HCK (Homo sapiens) (UniProt P08631); conditions: Compound concentration 1000.0 nM
[16] = molecular target: AP2-associated protein kinase 1 (Homo sapiens) (UniProt Q2M2I8); conditions: Compound concentration 1000.0 nM
[17] = molecular target: Leucine-rich repeat serine/threonine-protein kinase 2 (Homo sapiens) (UniProt Q5S007); conditions: Compound concentration 1000.0 nM
[18] = test system: Epidermal growth factor receptor (Homo sapiens), P00533 [UNDEFINED MUTATION]; conditions: Compound concentration 1000.0 nM
[19] = molecular target: Receptor tyrosine-protein kinase erbB-4 (Homo sapiens) (UniProt Q15303); conditions: Compound concentration 1000.0 nM
[20] = molecular target: Myosin light chain kinase 2, skeletal/cardiac muscle (Homo sapiens) (UniProt Q9H1R3); conditions: Compound concentration 1000.0 nM
[21] = molecular target: Ephrin type-B receptor 6 (Homo sapiens) (UniProt O15197); conditions: Compound concentration 1000.0 nM
[22] = test system: Phosphatidylinositol 4,5-bisphosphate 3-kinase catalytic subunit alpha isoform (Homo sapiens), P42336 [Q546K]; conditions: Compound concentration 1000.0 nM
[23] = molecular target: T1, Alpha-2A adrenergic receptor (Homo sapiens) (UniProt P08913); conditions: Compound concentration 10.0 uM
T1 sequence (whole entry): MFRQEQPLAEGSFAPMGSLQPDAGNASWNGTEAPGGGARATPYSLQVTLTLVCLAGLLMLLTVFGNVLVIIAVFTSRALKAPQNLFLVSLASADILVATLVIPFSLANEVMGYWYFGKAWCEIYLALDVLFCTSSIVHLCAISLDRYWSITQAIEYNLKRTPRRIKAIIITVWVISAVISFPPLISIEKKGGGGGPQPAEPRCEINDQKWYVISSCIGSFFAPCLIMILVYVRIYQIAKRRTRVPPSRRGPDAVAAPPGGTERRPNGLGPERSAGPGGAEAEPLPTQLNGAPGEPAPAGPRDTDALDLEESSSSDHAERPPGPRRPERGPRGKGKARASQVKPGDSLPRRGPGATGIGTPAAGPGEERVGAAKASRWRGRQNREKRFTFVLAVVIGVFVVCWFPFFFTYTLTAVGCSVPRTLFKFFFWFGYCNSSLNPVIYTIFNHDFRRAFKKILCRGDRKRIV

[24] = molecular target: Ephrin type-B receptor 4 (Homo sapiens) (UniProt P54760); conditions: Compound concentration 1000.0 nM
[25] = molecular target: Interleukin-1 receptor-associated kinase 1 (Homo sapiens) (UniProt P51617); conditions: Compound concentration 1000.0 nM
[26] = molecular target: Cytoplasmic tyrosine-protein kinase BMX (Homo sapiens) (UniProt P51813); conditions: Compound concentration 1000.0 nM
[27] = molecular target: Mitogen-activated protein kinase kinase kinase 12 (Homo sapiens) (UniProt Q12852); conditions: Compound concentration 1000.0 nM
[28] = molecular target: Serine/threonine-protein kinase Chk2 (Homo sapiens) (UniProt O96017); conditions: Compound concentration 1000.0 nM
[29] = molecular target: Peripheral plasma membrane protein CASK (Homo sapiens) (UniProt O14936); conditions: Compound concentration 1000.0 nM
[30] = molecular target: Casein kinase I isoform alpha (Homo sapiens) (UniProt P48729); conditions: Compound concentration 1000.0 nM
[31] = molecular target: Serine/threonine-protein kinase WNK1 (Homo sapiens) (UniProt Q9H4A3); conditions: Compound concentration 1000.0 nM
[32] = test system: Receptor-type tyrosine-protein kinase FLT3 (Homo sapiens), P36888 [N841I]; conditions: Compound concentration 1000.0 nM
[33] = test system: Epidermal growth factor receptor (Homo sapiens), P00533 [G719C]; conditions: Compound concentration 1000.0 nM
[34] = test system: Tyrosine-protein kinase ABL1 (Homo sapiens), P00519 [E255K]; conditions: Compound concentration 1000.0 nM
[35] = molecular target: Dual specificity protein kinase TTK (Homo sapiens) (UniProt P33981); conditions: Compound concentration 1000.0 nM
[36] = molecular target: RAC-alpha serine/threonine-protein kinase (Homo sapiens) (UniProt P31749); conditions: Compound concentration 1000.0 nM
[37] = molecular target: Histamine H2 receptor (Homo sapiens) (UniProt P25021); conditions: Compound concentration 10.0 uM
[38] = molecular target: Serine/threonine-protein kinase D1 (Homo sapiens) (UniProt Q15139); conditions: Compound concentration 1000.0 nM

Sequence of Leucine-rich repeat serine/threonine-protein kinase 2 (Homo sapiens) (Q5S007 whole entry): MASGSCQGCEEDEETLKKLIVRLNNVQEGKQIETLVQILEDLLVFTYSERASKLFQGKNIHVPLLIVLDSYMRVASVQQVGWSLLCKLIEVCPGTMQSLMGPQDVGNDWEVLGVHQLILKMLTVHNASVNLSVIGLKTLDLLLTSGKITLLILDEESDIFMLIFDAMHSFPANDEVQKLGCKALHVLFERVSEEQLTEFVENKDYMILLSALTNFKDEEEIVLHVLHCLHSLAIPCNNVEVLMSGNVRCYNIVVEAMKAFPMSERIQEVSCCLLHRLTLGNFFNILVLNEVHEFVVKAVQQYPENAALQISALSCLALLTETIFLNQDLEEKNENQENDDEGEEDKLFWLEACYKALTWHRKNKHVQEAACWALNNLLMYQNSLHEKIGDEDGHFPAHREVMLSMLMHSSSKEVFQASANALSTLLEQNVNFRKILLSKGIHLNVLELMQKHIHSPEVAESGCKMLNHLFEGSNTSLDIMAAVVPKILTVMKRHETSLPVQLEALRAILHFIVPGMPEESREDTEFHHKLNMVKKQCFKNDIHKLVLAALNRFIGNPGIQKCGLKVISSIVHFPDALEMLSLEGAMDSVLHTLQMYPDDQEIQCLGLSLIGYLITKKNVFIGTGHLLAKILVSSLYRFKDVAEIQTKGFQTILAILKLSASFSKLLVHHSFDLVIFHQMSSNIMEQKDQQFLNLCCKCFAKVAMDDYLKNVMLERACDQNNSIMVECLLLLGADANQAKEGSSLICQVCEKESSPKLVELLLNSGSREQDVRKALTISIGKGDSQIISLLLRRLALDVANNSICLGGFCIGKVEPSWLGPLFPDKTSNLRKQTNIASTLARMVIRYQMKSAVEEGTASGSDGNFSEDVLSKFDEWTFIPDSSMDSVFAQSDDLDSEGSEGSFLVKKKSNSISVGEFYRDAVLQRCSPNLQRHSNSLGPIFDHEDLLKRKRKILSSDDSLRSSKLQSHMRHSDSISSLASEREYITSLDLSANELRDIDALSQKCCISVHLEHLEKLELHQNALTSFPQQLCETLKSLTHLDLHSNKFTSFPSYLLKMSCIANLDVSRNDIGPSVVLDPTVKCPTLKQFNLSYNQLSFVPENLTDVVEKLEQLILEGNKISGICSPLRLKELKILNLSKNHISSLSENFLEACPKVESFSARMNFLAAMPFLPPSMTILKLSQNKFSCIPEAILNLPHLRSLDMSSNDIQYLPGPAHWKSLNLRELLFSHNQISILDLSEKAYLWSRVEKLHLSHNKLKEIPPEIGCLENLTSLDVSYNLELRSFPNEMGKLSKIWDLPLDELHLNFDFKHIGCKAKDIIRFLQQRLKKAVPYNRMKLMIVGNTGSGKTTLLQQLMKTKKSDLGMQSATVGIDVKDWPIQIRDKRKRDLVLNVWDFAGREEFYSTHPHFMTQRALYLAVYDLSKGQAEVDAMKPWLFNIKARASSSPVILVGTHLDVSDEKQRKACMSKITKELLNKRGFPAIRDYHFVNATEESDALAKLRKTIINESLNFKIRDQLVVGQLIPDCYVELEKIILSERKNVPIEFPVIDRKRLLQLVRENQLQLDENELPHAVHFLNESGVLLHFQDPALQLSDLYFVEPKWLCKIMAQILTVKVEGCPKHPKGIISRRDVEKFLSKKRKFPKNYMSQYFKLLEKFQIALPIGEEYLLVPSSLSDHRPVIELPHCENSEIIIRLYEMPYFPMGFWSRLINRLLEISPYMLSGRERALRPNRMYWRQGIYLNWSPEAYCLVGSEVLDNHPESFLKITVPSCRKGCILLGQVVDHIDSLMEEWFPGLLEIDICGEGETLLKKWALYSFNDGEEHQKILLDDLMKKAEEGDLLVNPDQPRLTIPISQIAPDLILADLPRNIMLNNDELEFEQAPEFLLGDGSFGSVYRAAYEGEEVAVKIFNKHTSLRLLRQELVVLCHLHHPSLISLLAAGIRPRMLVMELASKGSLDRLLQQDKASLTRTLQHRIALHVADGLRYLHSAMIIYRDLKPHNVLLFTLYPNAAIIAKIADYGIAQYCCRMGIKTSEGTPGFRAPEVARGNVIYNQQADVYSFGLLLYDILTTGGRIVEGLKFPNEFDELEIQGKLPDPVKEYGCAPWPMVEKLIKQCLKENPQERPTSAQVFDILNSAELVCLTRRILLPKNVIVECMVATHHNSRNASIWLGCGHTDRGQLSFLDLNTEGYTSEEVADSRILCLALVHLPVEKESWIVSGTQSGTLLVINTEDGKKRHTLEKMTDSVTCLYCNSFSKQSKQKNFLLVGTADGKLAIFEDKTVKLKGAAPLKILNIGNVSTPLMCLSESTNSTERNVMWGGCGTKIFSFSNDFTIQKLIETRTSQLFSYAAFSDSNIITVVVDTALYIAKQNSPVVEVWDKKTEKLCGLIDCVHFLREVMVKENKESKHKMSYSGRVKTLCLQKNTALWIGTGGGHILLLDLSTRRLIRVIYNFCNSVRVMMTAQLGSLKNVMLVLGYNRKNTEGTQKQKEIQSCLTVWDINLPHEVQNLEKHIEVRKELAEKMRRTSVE
Sequence of AP2-associated protein kinase 1 (Homo sapiens) (Q2M2I8 whole entry, looked up): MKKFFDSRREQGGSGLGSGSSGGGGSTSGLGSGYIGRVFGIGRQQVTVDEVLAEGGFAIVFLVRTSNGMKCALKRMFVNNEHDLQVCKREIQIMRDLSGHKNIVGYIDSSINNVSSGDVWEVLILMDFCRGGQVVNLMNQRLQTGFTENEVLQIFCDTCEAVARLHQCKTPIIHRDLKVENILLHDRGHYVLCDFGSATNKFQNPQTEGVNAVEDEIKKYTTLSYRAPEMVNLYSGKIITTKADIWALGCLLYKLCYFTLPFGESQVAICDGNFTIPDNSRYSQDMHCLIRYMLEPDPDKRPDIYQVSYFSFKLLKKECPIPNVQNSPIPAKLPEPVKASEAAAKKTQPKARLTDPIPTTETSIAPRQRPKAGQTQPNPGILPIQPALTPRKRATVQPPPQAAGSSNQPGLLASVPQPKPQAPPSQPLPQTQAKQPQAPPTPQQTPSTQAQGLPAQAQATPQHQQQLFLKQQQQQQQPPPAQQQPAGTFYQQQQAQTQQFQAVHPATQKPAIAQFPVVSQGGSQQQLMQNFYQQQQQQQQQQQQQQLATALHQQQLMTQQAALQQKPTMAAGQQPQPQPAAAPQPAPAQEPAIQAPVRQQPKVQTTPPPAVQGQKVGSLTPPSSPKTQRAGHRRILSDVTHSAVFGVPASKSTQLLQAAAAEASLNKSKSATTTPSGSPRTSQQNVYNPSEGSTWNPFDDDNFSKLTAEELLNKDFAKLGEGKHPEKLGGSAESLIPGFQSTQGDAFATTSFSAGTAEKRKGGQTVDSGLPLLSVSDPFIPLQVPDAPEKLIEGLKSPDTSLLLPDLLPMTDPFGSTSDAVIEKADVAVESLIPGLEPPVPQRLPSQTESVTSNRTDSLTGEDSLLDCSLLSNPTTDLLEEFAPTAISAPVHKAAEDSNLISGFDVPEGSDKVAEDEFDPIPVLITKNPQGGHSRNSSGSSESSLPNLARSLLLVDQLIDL
Sequence of 5-hydroxytryptamine receptor 3A (Homo sapiens) (P46098 whole entry): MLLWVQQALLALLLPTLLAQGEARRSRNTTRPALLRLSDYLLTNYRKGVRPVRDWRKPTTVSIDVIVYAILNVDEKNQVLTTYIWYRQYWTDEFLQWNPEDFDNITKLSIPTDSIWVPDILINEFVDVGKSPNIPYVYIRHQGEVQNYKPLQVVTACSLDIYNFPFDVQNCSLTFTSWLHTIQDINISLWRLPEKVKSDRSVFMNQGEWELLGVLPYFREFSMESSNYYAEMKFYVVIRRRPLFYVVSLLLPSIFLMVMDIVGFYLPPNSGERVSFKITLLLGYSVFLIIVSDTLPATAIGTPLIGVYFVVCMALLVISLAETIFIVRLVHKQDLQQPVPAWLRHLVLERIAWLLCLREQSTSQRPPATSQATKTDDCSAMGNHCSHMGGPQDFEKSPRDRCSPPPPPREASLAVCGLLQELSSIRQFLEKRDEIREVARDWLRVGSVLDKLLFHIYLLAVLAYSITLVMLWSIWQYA
Sequence of Mast/stem cell growth factor receptor Kit (Homo sapiens), P10721 [V559D,V654A] (P10721 whole entry V559D/V654A): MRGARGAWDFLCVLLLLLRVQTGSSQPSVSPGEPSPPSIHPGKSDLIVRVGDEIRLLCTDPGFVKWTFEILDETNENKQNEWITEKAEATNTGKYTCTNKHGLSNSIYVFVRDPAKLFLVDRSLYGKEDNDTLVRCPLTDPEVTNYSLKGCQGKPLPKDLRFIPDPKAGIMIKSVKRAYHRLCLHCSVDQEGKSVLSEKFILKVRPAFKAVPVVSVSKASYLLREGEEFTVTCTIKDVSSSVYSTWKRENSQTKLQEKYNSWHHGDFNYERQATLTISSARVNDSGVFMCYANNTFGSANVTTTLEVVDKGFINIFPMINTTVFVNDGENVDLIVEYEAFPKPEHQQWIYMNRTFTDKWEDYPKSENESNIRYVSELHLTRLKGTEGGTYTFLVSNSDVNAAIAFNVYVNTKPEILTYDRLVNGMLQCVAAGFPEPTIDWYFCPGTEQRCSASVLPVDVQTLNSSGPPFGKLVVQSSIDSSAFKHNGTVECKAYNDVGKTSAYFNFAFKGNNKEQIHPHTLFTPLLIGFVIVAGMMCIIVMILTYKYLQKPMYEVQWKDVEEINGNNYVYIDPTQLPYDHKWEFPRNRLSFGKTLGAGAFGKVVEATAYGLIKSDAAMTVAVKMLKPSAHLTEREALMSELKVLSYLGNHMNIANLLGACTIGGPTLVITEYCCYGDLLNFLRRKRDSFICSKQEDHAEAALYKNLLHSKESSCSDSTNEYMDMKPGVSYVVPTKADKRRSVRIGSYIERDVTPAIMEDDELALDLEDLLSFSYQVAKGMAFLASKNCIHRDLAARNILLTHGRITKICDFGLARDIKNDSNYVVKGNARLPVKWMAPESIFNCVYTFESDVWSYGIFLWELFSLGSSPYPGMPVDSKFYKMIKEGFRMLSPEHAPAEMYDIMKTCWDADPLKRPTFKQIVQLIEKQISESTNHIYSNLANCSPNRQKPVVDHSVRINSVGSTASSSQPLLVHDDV

| Structure (SMILES) | inhibition [1] [%] | residual activity [2] [%] | residual activity [3] [%] | residual activity [4] [%] | residual activity [5] [%] | residual activity [6] [%] | residual activity [7] [%] | residual activity [8] [%] | residual activity [9] [%] | pKi [10] | inhibition [11] [%] | residual activity [12] [%] | residual activity [13] [%] | residual activity [14] [%] | residual activity [15] [%] | residual activity [16] [%] | residual activity [17] [%] | residual activity [18] [%] | residual activity [19] [%] | residual activity [20] [%] | further results |
| --- | --- | --- | --- | --- | --- | --- | --- | --- | --- | --- | --- | --- | --- | --- | --- | --- | --- | --- | --- | --- | --- |
| O=C(Nc1ccc(Oc2ccc(F)cc2)cc1)N1CCc2ncccc2[C@H]1c1ccc(F)cc1 [BAY-897] | 4.7 | 93 | 87 | 100 | 86 | 90 | 96 | 100 | 82 | 5.62 | 7.56 | 73 | 97 | 92 | 100 | 95 | 76 | 74 | 82 | 100 | residual activity [21]: 70%; residual activity [22]: 75%; inhibition [23]: 7.16%; residual activity [24]: 100%; residual activity [25]: 88%; residual activity [26]: 100%; residual activity [27]: 100%; residual activity [28]: 94%; residual activity [29]: 100%; residual activity [30]: 97%; residual activity [31]: 96%; residual activity [32]: 93%; residual activity [33]: 73%; residual activity [34]: 100%; residual activity [35]: 94%; residual activity [36]: 95%; inhibition [37]: 7.29%; residual activity [38]: 94% |
| O=C(Nc1cnc(Oc2ccc(F)cc2)nc1)N1CCc2ncccc2[C@@H]1c1ccc(F)cc1 [BAY-899] | 45.8 | 100 | 100 | 90 | 93 | 84 | 92 | 86 | 100 | 5.84 | -4.41 | 63 | 91 | 100 | 96 | 91 | 83 | 100 | 97 | 90 | residual activity [21]: 100%; residual activity [22]: 95%; inhibition [23]: 9.77%; residual activity [24]: 100%; residual activity [25]: 88%; residual activity [26]: 94%; residual activity [27]: 100%; residual activity [28]: 92%; residual activity [29]: 94%; residual activity [30]: 85%; residual activity [31]: 100%; residual activity [32]: 88%; residual activity [33]: 76%; residual activity [34]: 100%; residual activity [35]: 86%; residual activity [36]: 100%; inhibition [37]: 2.75%; residual activity [38]: 100% |

Source: ChEMBL document CHEMBL4507317, “Data for DCP probe BAY-899” (2021)
